Test results reported in patent US20250326771A1, “PIPERAZINE DERIVATIVES USEFUL IN HIV THERAPY” (VIIV HEALTHCARE COMPANY, priority 2022, published 2025).
pIC50: −log10 of the molar value.

Assays:
[1] = system: Jurkat HIV-luciferase clones; assay: Jurkat latency reversal assay; assay type: cell-based; conditions: Homo sapiens, 48 h; Jurkat latency reversal assay potency; read-out: Jurkat pEC50 (converted)
In short: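 Luminescence read-out: Steady-Glo after 48 h, 37° C, on mixed Jurkat HIV-luc clones (C16, 115, N6; 5,000 cells/well total). Cpd 14-pt 3-fold dilutions, duplicate, top 10 μM, 0.5% DMSO. EC50 + max % activation vs vehicle via 4-parameter fit.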

cIAP1-BIR3 = cIAP1-BIR3 (Homo sapiens (Human), UniProt Q13490); assay: BIR binding assay (FRET competition), cIAP1 BIR3; conditions: for cIAP1 BIR3 vs BIR2 separation window: fold separation (FS) for cIAP1
Chain of cIAP1-BIR3 (Q13490 253-363): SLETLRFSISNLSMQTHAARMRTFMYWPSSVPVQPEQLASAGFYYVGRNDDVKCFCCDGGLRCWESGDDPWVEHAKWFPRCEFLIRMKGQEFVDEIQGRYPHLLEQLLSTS
In short: (§1)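 Each domain is run separately at its own level: 50 nM cIAP1-BIR3, 100 nM XIAP-BIR3, 325 nM for cIAP1-BIR2 or cIAP2-BIR2. Probe is a 200 nM fluorescent SMAC peptide, and the value is IC50 from FRET competition.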

cIAP1-BIR2 = cIAP1-BIR2 (Homo sapiens (Human), UniProt Q13490); assay: BIR binding assay (FRET competition), cIAP1 BIR2
Chain of cIAP1-BIR2 (Q13490 173-257): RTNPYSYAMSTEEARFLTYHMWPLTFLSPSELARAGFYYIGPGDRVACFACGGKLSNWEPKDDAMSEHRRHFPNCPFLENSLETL
In short: as §1

cIAP2-BIR3 = cIAP2-BIR3 (Homo sapiens (Human), UniProt Q13489); assay: BIR binding assay (FRET competition), cIAP2 BIR3; conditions: for cIAP2 BIR3 vs BIR2 separation window: fold separation (FS) for cIAP2
Chain of cIAP2-BIR3 (Q13489 238-349): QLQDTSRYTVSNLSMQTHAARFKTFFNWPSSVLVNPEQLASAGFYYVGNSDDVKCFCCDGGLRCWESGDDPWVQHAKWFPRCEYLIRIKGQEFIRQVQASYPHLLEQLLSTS

cIAP2-BIR2 = cIAP2-BIR2 (Homo sapiens (Human), UniProt Q13489); assay: BIR binding assay (FRET competition), cIAP2 BIR2
Chain of cIAP2-BIR2 (Q13489 158-242): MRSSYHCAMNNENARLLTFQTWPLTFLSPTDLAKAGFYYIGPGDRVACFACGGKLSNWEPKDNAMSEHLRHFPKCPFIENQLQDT
In short: as §1

XIAP-BIR3 = XIAP-BIR3 (Homo sapiens (Human), UniProt P98170); assay: BIR binding assay (FRET competition), XIAP BIR3; conditions: for XIAP BIR3 vs BIR2 separation window: fold separation (FS) for XIAP
Chain of XIAP-BIR3 (P98170 241-356): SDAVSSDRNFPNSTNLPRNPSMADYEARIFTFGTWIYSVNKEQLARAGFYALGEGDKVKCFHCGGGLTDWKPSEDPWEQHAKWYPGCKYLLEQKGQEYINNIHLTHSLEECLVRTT
In short: as §1

XIAP-BIR2 = XIAP-BIR2 (Homo sapiens (Human), UniProt P98170); assay: BIR binding assay (FRET competition), XIAP BIR2; conditions: FRET competition binding; read-out: XIAP BIR2 (pIC50) (converted)
Chain of XIAP-BIR2 (P98170 124-240): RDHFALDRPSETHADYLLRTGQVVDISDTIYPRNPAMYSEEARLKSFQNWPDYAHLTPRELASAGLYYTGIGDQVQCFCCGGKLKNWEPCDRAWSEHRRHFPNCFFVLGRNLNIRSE
In short: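 Compounds in a 15-point, 3-fold series competed with an AlexaFluor647 SMAC peptide (AVPIAQKSE, 200 nM) for 200 nM His-tagged XIAP-BIR2 over 60 min in pH 7.4 HEPES/CHAPS/DTT buffer. Eu-W1024 (2 nM) was then added for 30 min. IC50 and pIC50 were derived from the 615 nm/665 nm emission ratio by variable-slope fit.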

| SMILES | EC50 [1] | pIC50 (cIAP1-BIR3) | cIAP1 BIR3 vs BIR2 separation window (cIAP1-BIR3) | pIC50 (cIAP1-BIR2) | pIC50 (cIAP2-BIR3) | cIAP2 BIR3 vs BIR2 separation window (cIAP2-BIR3) | pIC50 (cIAP2-BIR2) | pIC50 (XIAP-BIR3) | XIAP BIR3 vs BIR2 separation window (XIAP-BIR3) | IC50 (XIAP-BIR2) |
| --- | --- | --- | --- | --- | --- | --- | --- | --- | --- | --- |
| C[C@@H]1CN(CC(=O)N2CC(C)(C)c3[nH]c(=O)c(Cc4ccc(F)cc4)cc32)[C@@H](CN2CCO[C@H](C(=O)N(C)CC3CCN(C(=O)[C@@H]4CN(C[C@H]5CN[C@H](C)CN5CC(=O)N5CC(C)(C)c6[nH]c(=O)c(Cc7ccc(F)cc7)cc65)CCO4)CC3)C2)CN1 [Example 132, (S)-4-(((2R,5R)-1-(2-(6-(4-fluorobenzyl)-3,3-dimethyl-5-oxo-2,3,4,5-tetrahydro-1H-pyrrolo[3,2-b]pyridin-1-yl)-2-oxoethyl)-5-methylpiperazin-2-yl)methyl)-N-((1-((S)-4-(((2R,5R)-1-(2-(6-(4-fluorobenzyl)-3,3-dimethyl-5-oxo-2,3,4,5-tetrahydro-1H-pyrrolo[3,2-b]pyridin-1-yl)-2-oxoethyl)-5-methylpiperazin-2-yl)methyl)morpholine-2-carbonyl)piperidin-4-yl)methyl)-N-methylmorpholine-2-carboxamide] | 12.6 to 63.1 nM | 7.80 to 8.10 | +++ (10,000>FS>1,000) | 5.00 to 5.50 | 7.80 to 8.10 | +++ (10,000>FS>1,000) | 5.50 to 6.00 | 7.50 to 7.80 | ++++ (FS>10,000) | 10000 to 51300 nM |
| C[C@@H]1CN(CC(=O)N2CC(C)(C)c3[nH]c(=O)c(Cc4ccc(F)cc4)cc32)[C@@H](CN2CCC(COc3cccc(OCC4CCN(C[C@H]5CN[C@H](C)CN5CC(=O)N5CC(C)(C)c6[nH]c(=O)c(Cc7ccc(F)cc7)cc65)CC4)c3)CC2)CN1 [Example 107, 1,1′-(2,2′-((3R,3′R,6R,6′R)-((((1,3-phenylenebis(oxy))bis(methylene))bis(piperidine-4,1-diyl))bis(methylene))bis(3-methylpiperazine-6,1-diyl))bis(acetyl))bis(6-(4-fluorobenzyl)-3,3-dimethyl-1,2,3,4-tetrahydro-5H-pyrrolo[3,2-b]pyridin-5-one)] | 12.6 to 63.1 nM | 7.80 to 8.10 | +++ (10,000>FS>1,000) | 5.50 to 6.00 | 8.10 to 8.86 | ++++ (FS>10,000) | 4.29 to 5.00 | 7.80 to 8.10 | ++++ (FS>10,000) | 10000 to 51300 nM |
| C[C@@H]1CN(CC(=O)N2CC(C)(C)c3[nH]c(=O)c(Cc4ccc(F)cc4)cc32)[C@@H](CN2CCN(C(=O)c3cccnc3-c3ncccc3C(=O)N3CCN(C[C@H]4CN[C@H](C)CN4CC(=O)N4CC(C)(C)c5[nH]c(=O)c(Cc6ccc(F)cc6)cc54)[C@H](C)C3)C[C@H]2C)CN1 [Example 17, 1,1′-(2,2′-((3R,3′R,6R,6′R)-(((2R,2′R)-([2,2′-bipyridine]-3,3′-dicarbonyl)bis(2-methylpiperazine-4,1-diyl))bis(methylene))bis(3-methylpiperazine-6,1-diyl))bis(acetyl))bis(6-(4-fluorobenzyl)-3,3-dimethyl-1,2,3,4-tetrahydro-5H-pyrrolo[3,2-b]pyridin-5-one)] | 316 to 3310 nM | 8.10 to 8.86 | ++ (1,000>FS>100) | 6.00 to 7.65 | 8.10 to 8.86 | ++ (1,000>FS>100) | 6.00 to 7.65 | 8.10 to 8.86 | ++++ (FS>10,000) | 10000 to 51300 nM |
| C[C@@H]1CN(CC(=O)N2CC(C)(C)c3[nH]c(=O)c(Cc4ccc(F)cc4)cc32)[C@@H](CN2CCO[C@H](C(=O)NCc3cccc(CNC(=O)[C@@H]4CN(C[C@H]5CN[C@H](C)CN5CC(=O)N5CC(C)(C)c6[nH]c(=O)c(Cc7ccc(F)cc7)cc65)CCO4)c3)C2)CN1 [Example 122, (2S,2'S)-N,N′-(1,3-phenylenebis(methylene))bis(4-(((2R,5R)-1-(2-(6-(4-fluorobenzyl)-3,3-dimethyl-5-oxo-2,3,4,5-tetrahydro-1H-pyrrolo[3,2-b]pyridin-1-yl)-2-oxoethyl)-5-methylpiperazin-2-yl)methyl)morpholine-2-carboxamide)] | 12.6 to 63.1 nM | 7.80 to 8.10 | ++ (1,000>FS>100) | 5.50 to 6.00 | 7.80 to 8.10 | +++ (10,000>FS>1,000) | 5.50 to 6.00 | 7.50 to 7.80 | ++++ (FS>10,000) | 10000 to 51300 nM |
